Source: BindingDB's records for doi:10.1021/jm00075a013 (Ciba-Geigy, 1994)

Key:
[1] = molecular target: Arachidonate 5-lipoxygenase (Cavia porcellus); assay: In vitro inhibitory activity against 5-lipoxygenase by reduction of 5-hydroxyeicosatetraenoic acid (5-HETE) formed in guinea pig polymorphonuclear leukocytes (PMNs).
[2] = molecular target: Arachidonate 5-lipoxygenase (Cavia porcellus); assay: In vitro inhibitory activity against 5-lipoxygenase by reduction of LTB4 formed in guinea pig polymorphonuclear leukocytes (PMNs).
[3] = molecular target: Arachidonate 5-lipoxygenase (Cavia porcellus); assay: In vitro inhibitory activity against 5-lipoxygenase by reduction of 5-hydroxyeicosatetraenoic acid (5-HETE) formed in guinea pig polymorphonuclear leukocytes (PMNs).; remark: listed apart in the source
[4] = molecular target: Thromboxane-A synthase (Homo sapiens) (UniProt P24557); assay: Inhibitory concentration against human platelet thromboxane synthetase
Thromboxane-A synthase (Homo sapiens), sequence (P24557 whole entry, looked up): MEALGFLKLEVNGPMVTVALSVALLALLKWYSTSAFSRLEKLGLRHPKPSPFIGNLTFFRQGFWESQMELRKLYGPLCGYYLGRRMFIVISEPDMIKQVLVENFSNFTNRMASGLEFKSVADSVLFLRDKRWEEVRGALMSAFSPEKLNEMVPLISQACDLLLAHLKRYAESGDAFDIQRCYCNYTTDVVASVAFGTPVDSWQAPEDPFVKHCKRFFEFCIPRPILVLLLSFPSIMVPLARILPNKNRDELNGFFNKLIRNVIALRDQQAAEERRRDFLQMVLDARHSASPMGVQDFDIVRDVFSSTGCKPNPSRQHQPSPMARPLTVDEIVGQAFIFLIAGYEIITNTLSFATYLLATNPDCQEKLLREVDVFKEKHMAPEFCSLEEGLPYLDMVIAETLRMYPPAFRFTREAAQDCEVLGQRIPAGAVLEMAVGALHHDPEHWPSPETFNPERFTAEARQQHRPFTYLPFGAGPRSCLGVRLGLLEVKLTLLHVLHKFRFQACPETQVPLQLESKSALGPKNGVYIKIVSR

| SMILES | IC50 [1] | IC50 [2] | IC50 [3] | IC50 [4] |
| --- | --- | --- | --- | --- |
| COc1ccc2c(c1)OCC(CN(O)C(N)=O)C2 (stereo not given) [N-hydroxy-N-[(7-methoxy-3,4-dihydro-2H-chromen-3-yl)methyl]urea] | > 3000 nM | > 3000 nM |  |  |
| CCCC1Oc2ccc(Oc3ccccc3)cc2C=C1CN(O)C(N)=O (stereo not given) [N-hydroxy-N-[(6-phenyoxy-2-propyl-2H-chromen-3-yl)methyl]urea] | 880 nM | 870 nM |  |  |
| CC(C)NC(=O)N(O)CC1=Cc2cc(Oc3ccccc3)ccc2OC1 [N-hydroxy-N'-isopropyl-N-[(6-phenoxy-2H-chromen-3-yl)methyl]urea] | 49 nM | 63 nM |  |  |
| NC(=O)N(O)CC1=Cc2cc(OCc3ccccc3)ccc2OC1 [N-(6-Benzyloxy-2H-chromen-3-ylmethyl)-hydroxylurea] |  | 380 nM | 440 nM |  |
| NC(=O)N(O)CC1=Cc2cc(-c3ccccc3)ccc2OC1 [N-hydroxy-N-[(6-phenyl-2H-chromen-3-yl)methyl]urea] |  | 230 nM | 240 nM |  |
| CNC(=O)N(O)CC1=Cc2cc(Oc3ccc(F)cc3)ccc2OC1 [N-{[6-(4-fluorophenoxy)-2H-chromen-3-yl]methyl}-N-hydroxy-N'-methylurea] |  |  |  | > 20 µM |
| NC(=O)N(O)CC1=Cc2cc(Br)ccc2OC1 [N-[(6-bromo-2H-chromen-3-yl)methyl]-N-hydroxyurea] |  | 1400 nM | 1400 nM |  |
| CCCCCCOc1ccc2c(c1)C=C(CN(O)C(N)=O)CO2 [N-(6-Hexyloxy-2H-chromen-3-ylmethyl)-hydroxylurea] | 280 nM | 340 nM |  |  |
| NC(=O)N(O)CC1=Cc2cc(OCc3ccc(C(F)(F)F)cc3)ccc2OC1 [N-[6-(4-Trifluoromethyl-benzyloxy)-2H-chromen-3-ylmethyl]-hydroxylurea] | 430 nM | 490 nM |  |  |
| NC(=O)N(O)CC1=Cc2cc(Oc3ccccc3)ccc2OC1 [N-hydroxy-N-[(6-phenoxy-2H-chromen-3-yl)methyl]urea] |  |  |  | > 20 µM |
| CCOC(=O)CNC(=O)N(O)CC1=Cc2cc(Oc3ccccc3)ccc2OC1 [ethyl [({hydroxy[(6-phenoxy-2H-chromen-3-yl)methyl]amino}carbonyl)amino]acetate] |  | 74 nM | 68 nM |  |
| NC(=O)N(O)CC1=Cc2cc(OCC3CCCCC3)ccc2OC1 [N-(6-Cyclohexylmethoxy-2H-chromen-3-ylmethyl)-hydroxylurea] |  | 1390 nM | 1360 nM |  |
| NC(=O)N(O)CC1=Cc2cc(OCCCc3ccccc3)ccc2OC1 | 130 nM | 160 nM |  |  |
| C=CCNC(=O)N(O)CC1=Cc2cc(Oc3ccccc3)ccc2OC1 [N'-allyl-N-hydroxy-N-[(6-phenoxy-2H-chromen-3-yl)methyl]urea] |  | 44 nM | 37 nM |  |
| CC(c1cc2ccccc2s1)N(O)C(N)=O (racemic) [Leutrol] |  |  |  | > 20 µM |
| NC(=S)N(O)CC1=Cc2cc(Oc3ccccc3)ccc2OC1 [N-hydroxy-N-[(6-phenoxy-2H-chromen-3-yl)methyl]thiourea] | 180 nM | 200 nM |  |  |
| CCCCNC(=O)N(O)CC1=Cc2cc(Oc3ccccc3)ccc2OC1 [N-hydroxy-N-[(6-phenoxy-2H-chromen-3-yl)methyl]-N'-butylurea] |  | 69 nM | 65 nM |  |
| CC1(C)Oc2ccc(Oc3ccccc3)cc2C=C1CN(O)C(N)=O [N-[(2,2-dimethyl-6-phenyoxy-2H-chromen-3-yl)methyl]-N-hydroxyurea] | 310 nM | 440 nM |  |  |
| CC1Oc2ccc(Oc3ccccc3)cc2C=C1CN(O)C(N)=O (stereo not given) [N-hydroxy-N-[(2-methyl-6-phenyoxy-2H-chromen-3-yl)methyl]urea] | 120 nM | 87 nM |  |  |
